Data published in patent EP3375430A1, “FRAGRANCE COMPOSITIONS” (Takasago International Corporation, priority 2017, dated 2018).

Tests used:
[1] = Headspace concentration of fragrance ingredients over blotter (thermal desorption GC-MS); format: physicochemical; conditions: fragrance TAK; after 1 hour; both control EdT1 and composition C1; Figure 2
Protocol: The headspace concentration of individual ingredients of fragrance TAK, as formulated in either a conventional EdT (EdT1) or a fragrance composition of the invention (C1), was assessed by the method described below.
A 10 cm length was cut from a standard perfumers' blotter. A sample of 100µL volume was applied to the upper surface of the blotter with a syringe. The blotter was placed on a hot plate thermostatted at 32°C and left to equilibrate for 5 minutes. Two desorption tubes (6cm length 4mm internal diameter) each containing 2 cm length of Tenax TA adsorbent were fitted to the glass part of a headspace apparatus shown in figure 9. The glass part was fitted over the blotter, a metering pump was connected to one of the desorption tubes and air was drawn through the apparatus flushing the headspace over the blotter at a rate of 17mL/min. Sampling continued for about 16.5 minutes until 280mL of air had been extracted. Then the outlet desorption tube was analysed by gas chromatography as described below. The glass part was removed from the blotter which was left on the hotplate until the next sampling time when two fresh desorption tubes were fitted and the extraction procedure repeated for a further 280mL of extracted headspace.
• Initial Temp: 50°C • Initial Time: 5 min • Rate: 3°C /min • Final Temp: 250°C • Final Time: 20 min • Run Time: 91.67 min
• Column: HP-5MS 30m * 0.25mm * 0.25µm • Gas: Helium • Constant pressure 12.675 psi
• Initial Temp: -30°C • Equilibration Time: 0.05 min • Initial Time: 0.00 min • Rate 12°C / min • End Temp: 260°C • Hold Time: 10 min
Temperature program • Initial Temp: 35°C • Delay Time: 0.30 min • Initial Time: 0.00 min • Rate: 30°C / min • End Temp: 250°C • Hold Time: 5.00 min
TDU Settings • Transfer Temp: 250°C • Transfer Temp Mode: Fixed • Desorption Mode: splitless • Sample mode: Retain tube - standby cooling • Standby Temp: 50°C
Detector MS • MS 5973 • Mass range: 35 to 350 • Threshold: 150 • Mass Quad: 150°C • Mass Source: 230°C
Following the procedure of example 2, the headspace concentration of representative ingredients of fragrance COM1 was determined. COM1 was dosed at 5 and 20 % either in control EdT3 and EdT4 or in compositions of the invention C7 and C8, as shown in table 10.
The headspace concentration of individual ingredients of fragrance TAK (see Table 1), as formulated in either a conventional EdT (EdT1) or fragrance compositions of the invention (C14, C15), was assessed by the method described in example 2.

[2] = Amount of fragrance ingredients retained on paper blotter after evaporation (ethanol extraction, GC-MS); format: physicochemical
Protocol: A fragrance (hereafter fragrance TAK, the formulation of which is shown in table 1) was formulated in a typical Eau de Toilette (EdT1) or in fragrance compositions according to the invention (compositions C1 to C4), as shown in table 2. The amount of individual fragrance ingredients retained on paper substrate (blotter) after set time periods was assessed by the following method.
100µL samples of either EdT1 or compositions C1 to C4 were applied to 4.5cm long standard paper blotters with a microsyringe. Three replicate blotters were prepared for each extraction time. After the appropriate evaporation time each of the 3 blotters was transferred to a 30mL glass bottle. 3mL of ethanol and 50µL of a 1% solution of methyl decanoate in ethanol as an internal standard were added. The bottle was sealed and placed on a roller bed to extract the blotter for 1 hour. A sample of the extracting solution was transferred to a vial which was sealed and analysed by gas chromatography (GC 6890) with a Mass Spectrometer detector (MS 5973) using the method described below. The results of the three replicate measurements were averaged. At exact times the same extraction was repeated on the remaining blotters which were stored on a warm surface at 32°C open to the air to allow evaporation. The gas chromatography conditions were as given below.
• Initial Temp: 50°C • Initial Time: 2 min • Rate: 10°C /min • Final Temp: 280°C • Final Time: 5 min • Run Time: 30 min
• Column: HP-5MS 30m * 0.25mm * 0.25µm • Gas: Helium • Constant Pressure 18.55 psi
• Split mode Ratio 40:1 • Inlet Temp: 250°C
• MS 5973 • Mass range: 35 to 350 • Threshold: 100 • Mass Quad: 150°C • Mass Source: 230°C
To simplify the results the average amount of each fragrance ingredient from the 3 samples measured at time zero was set at 100% and all other measurements were then related to that value so tables 3 to 6 show decreasing amounts of fragrance ingredients as a percentage of the initial amount.
The method of example 1 was repeated using a commercial fragrance (hereafter fragrance COM1, the formulation of which is given in table 7) formulated in a typical Eau de Toilette (EdT2) or in fragrance compositions according to the invention (compositions C5 and C6), as shown in table 8.

Compound: CCCCCCOC(C)=O [Hexyl acetate, Hexyl Acetate]
- headspace presence of ingredient [1]: lost
- amount of fragrance ingredient retained on blotter (percentage of the initial amount) ([2]; Table 3, fragrance TAK in C1, 15 min, 32°C): 41%
- amount of fragrance ingredient retained on blotter (percentage of the initial amount) ([2]; Table 3, fragrance TAK in C1, 60 min, 32°C): 5%
- amount of fragrance ingredient retained on blotter (percentage of the initial amount) ([2]; Table 3, fragrance TAK in C1, 120 min, 32°C): 2%
- amount of fragrance ingredient retained on blotter (percentage of the initial amount) ([2]; Table 3, fragrance TAK in C1, 240 min, 32°C): 2%
- amount of fragrance ingredient retained on blotter (percentage of the initial amount) ([2]; Table 3, fragrance TAK in C1, 480 min, 32°C): 2%
- amount of fragrance ingredient retained on blotter (percentage of the initial amount) ([2]; Table 3, fragrance TAK in EdT1, 15 min, 32°C): 13%
- amount of fragrance ingredient retained on blotter (percentage of the initial amount) ([2]; Table 3, fragrance TAK in EdT1, 60 min, 32°C): 2%
- amount of fragrance ingredient retained on blotter (percentage of the initial amount) ([2]; Table 3, fragrance TAK in EdT1, 120 min, 32°C): 2%
- amount of fragrance ingredient retained on blotter (percentage of the initial amount) ([2]; Table 3, fragrance TAK in EdT1, 240 min, 32°C): 1%
- amount of fragrance ingredient retained on blotter (percentage of the initial amount) ([2]; Table 3, fragrance TAK in EdT1, 480 min, 32°C): <1%
- amount of fragrance ingredient retained on blotter (percentage of the initial amount) ([2]; Table 3, fragrance TAK in EdT1 or C1, T0, set at 100% (normalisation)): 100%
- amount of fragrance ingredient retained on blotter (percentage of the initial amount) ([2]; Table 4, fragrance TAK in C2, 15 min, 32°C): 54%
- amount of fragrance ingredient retained on blotter (percentage of the initial amount) ([2]; Table 4, fragrance TAK in C2, 480 min, 32°C): <1%
- amount of fragrance ingredient retained on blotter (percentage of the initial amount) ([2]; Table 4, fragrance TAK in EdT1, 15 min, 32°C): 15%
- amount of fragrance ingredient retained on blotter (percentage of the initial amount) ([2]; Table 4, fragrance TAK in EdT1, 480 min, 32°C): 6%
- amount of fragrance ingredient retained on blotter (percentage of the initial amount) ([2]; Table 4, fragrance TAK in EdT1 or C2, T0, set at 100% (normalisation)): 100%
- amount of fragrance ingredient retained on blotter (percentage of the initial amount) ([2]; Table 5, fragrance TAK in C3, 15 min, 32°C): 43%
- amount of fragrance ingredient retained on blotter (percentage of the initial amount) ([2]; Table 5, fragrance TAK in C3, 60 min, 32°C): 5%
- amount of fragrance ingredient retained on blotter (percentage of the initial amount) ([2]; Table 5, fragrance TAK in C3, 120 min, 32°C): 2%
- amount of fragrance ingredient retained on blotter (percentage of the initial amount) ([2]; Table 5, fragrance TAK in C3, 240 min, 32°C): 2%
- amount of fragrance ingredient retained on blotter (percentage of the initial amount) ([2]; Table 5, fragrance TAK in C3, 480 min, 32°C): 2%
- amount of fragrance ingredient retained on blotter (percentage of the initial amount) ([2]; Table 5, fragrance TAK in C3, 1440 min, 32°C): 2%
- amount of fragrance ingredient retained on blotter (percentage of the initial amount) ([2]; Table 5, fragrance TAK in EdT1, 15 min, 32°C): 13%
- amount of fragrance ingredient retained on blotter (percentage of the initial amount) ([2]; Table 5, fragrance TAK in EdT1, 60 min, 32°C): 2%
- amount of fragrance ingredient retained on blotter (percentage of the initial amount) ([2]; Table 5, fragrance TAK in EdT1, 120 min, 32°C): 2%
- amount of fragrance ingredient retained on blotter (percentage of the initial amount) ([2]; Table 5, fragrance TAK in EdT1, 240 min, 32°C): 1%
- amount of fragrance ingredient retained on blotter (percentage of the initial amount) ([2]; Table 5, fragrance TAK in EdT1, 480 min, 32°C): <1%
- amount of fragrance ingredient retained on blotter (percentage of the initial amount) ([2]; Table 5, fragrance TAK in EdT1, 1440 min, 32°C): <1%
- amount of fragrance ingredient retained on blotter (percentage of the initial amount) ([2]; Table 5, fragrance TAK in EdT1 or C3, T0, set at 100% (normalisation)): 100%
- amount of fragrance ingredient retained on blotter (percentage of the initial amount) ([2]; Table 6, fragrance TAK in C4, 15 min, 32°C): 41%
- amount of fragrance ingredient retained on blotter (percentage of the initial amount) ([2]; Table 6, fragrance TAK in C4, 60 min, 32°C): 5%
- amount of fragrance ingredient retained on blotter (percentage of the initial amount) ([2]; Table 6, fragrance TAK in C4, 120 min, 32°C): 5%
- amount of fragrance ingredient retained on blotter (percentage of the initial amount) ([2]; Table 6, fragrance TAK in C4, 240 min, 32°C): 4%
- amount of fragrance ingredient retained on blotter (percentage of the initial amount) ([2]; Table 6, fragrance TAK in C4, 480 min, 32°C): 3%
- amount of fragrance ingredient retained on blotter (percentage of the initial amount) ([2]; Table 6, fragrance TAK in EdT1, 15 min, 32°C): 13%
- amount of fragrance ingredient retained on blotter (percentage of the initial amount) ([2]; Table 6, fragrance TAK in EdT1, 60 min, 32°C): 2%
- amount of fragrance ingredient retained on blotter (percentage of the initial amount) ([2]; Table 6, fragrance TAK in EdT1, 120 min, 32°C): 2%
- amount of fragrance ingredient retained on blotter (percentage of the initial amount) ([2]; Table 6, fragrance TAK in EdT1, 240 min, 32°C): 1%
- amount of fragrance ingredient retained on blotter (percentage of the initial amount) ([2]; Table 6, fragrance TAK in EdT1, 480 min, 32°C): <1%
- amount of fragrance ingredient retained on blotter (percentage of the initial amount) ([2]; Table 6, fragrance TAK in EdT1 or C4, T0, set at 100% (normalisation)): 100%
